Results taken from patent US4847268A, “8-phenylthio-tetrahydroquinolines and anti-allergic use thereof” (Roussel Uclaf, priority 1986, dated 1989).
Structures can show the parent of a compound that is named as a salt.

Columns and labels:
5-lipoxygenase = target: T1, 5-lipoxygenase (Rattus norvegicus, UniProt P12527); experiment: 5-LIPOX: inhibition of Ca++ ionophore (A23187)-induced release of 5-lipoxygenase products from [14C]-arachidonic acid pre-labelled rat peritoneal neutrophils; format: cell-based; conditions: A23187-induced release of leukotriene D4 and 5-HETE, determined graphically from dose-response curves, read-out: 5-LIPOX: concentration of test compound causing 50% inhibition of control response
T1 construct: pre-labelled rat peritoneal neutrophils; endogenous in cells; host or cells: rat peritoneal neutrophils
T1 sequence (P12527 1-673): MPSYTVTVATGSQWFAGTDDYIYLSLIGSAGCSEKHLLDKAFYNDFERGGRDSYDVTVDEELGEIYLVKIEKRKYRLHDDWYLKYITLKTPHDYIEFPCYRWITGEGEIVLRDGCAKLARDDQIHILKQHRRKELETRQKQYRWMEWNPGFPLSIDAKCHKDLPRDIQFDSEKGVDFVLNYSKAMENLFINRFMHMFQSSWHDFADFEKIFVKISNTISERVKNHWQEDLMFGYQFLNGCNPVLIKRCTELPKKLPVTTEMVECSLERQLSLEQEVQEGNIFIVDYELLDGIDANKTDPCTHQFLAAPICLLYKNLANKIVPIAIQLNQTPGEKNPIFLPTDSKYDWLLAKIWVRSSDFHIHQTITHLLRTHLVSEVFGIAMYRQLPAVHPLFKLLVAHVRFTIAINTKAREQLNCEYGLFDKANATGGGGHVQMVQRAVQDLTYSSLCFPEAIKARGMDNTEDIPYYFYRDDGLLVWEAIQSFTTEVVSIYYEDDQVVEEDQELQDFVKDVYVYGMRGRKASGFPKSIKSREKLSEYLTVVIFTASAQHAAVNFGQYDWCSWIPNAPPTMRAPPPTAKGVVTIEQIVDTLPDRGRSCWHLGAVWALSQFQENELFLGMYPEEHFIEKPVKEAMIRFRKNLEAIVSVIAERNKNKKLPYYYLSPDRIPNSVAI
Excerpt: A. 5-LIPOX Inhibition of the Ca^++ ionophore (A23187)-induced release of 5-lipoxygenase products ([…] and 5-HETE) from [^14 C]-arachidonic acid pre-labelled rat peritoneal neutrophils. Assayed by a modification of the method reported by Ahnfelt-Ronne et al [Biochemical Pharmacology, Vol. 31, No. 16, pp. 2619-2624 (1982)]. The data presented are micromolar concentrations of test compound causing 50% inhibition of control response determined graphically from dose-response curves.

LTD4 receptor = target: T2, LTD4 receptor (Cavia porcellus, UniProt Q2NNR5); experiment: LTD4 RECEPTOR: inhibition of specific binding of [3H]-LTD4 to a membrane preparation of guinea-pig lung tissue; conditions: [3H]-LTD4, guinea-pig lung membrane preparation; determined graphically from dose-response curves; read-out: LTD4 receptor: concentration of test compound causing 50% inhibition of specific binding
T2 construct: a membrane preparation of guinea-pig lung tissue; from tissue; host or cells: guinea-pig lung membranes
T2 sequence (Q2NNR5 1-340): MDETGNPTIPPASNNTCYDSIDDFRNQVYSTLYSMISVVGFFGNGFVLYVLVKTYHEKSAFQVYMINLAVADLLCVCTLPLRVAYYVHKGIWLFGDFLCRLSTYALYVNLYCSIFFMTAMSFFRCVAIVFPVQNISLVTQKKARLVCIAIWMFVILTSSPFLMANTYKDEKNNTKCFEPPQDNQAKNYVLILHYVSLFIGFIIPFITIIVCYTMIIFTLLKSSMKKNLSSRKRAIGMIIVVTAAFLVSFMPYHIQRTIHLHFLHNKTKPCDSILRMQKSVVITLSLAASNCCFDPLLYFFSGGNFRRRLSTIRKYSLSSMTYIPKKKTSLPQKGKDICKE
Excerpt: B. LTD4 RECEPTOR Inhibition of the specific binding of [^3 H]-LTD4 to a membrane preparation of guinea-pig lung tissue assayed by a modification of a method reported by Bruns et al [Life Sciences, Vol. 33, pp. 645-653 (1983)]. The data presented are micromolar concentrations of test compound causing 50% inhibition of specific binding determined graphically from dose-response curves.

IC50 (5-lipoxygenase) [µM]	IC50 (LTD4 receptor) [µM]	SMILES
> 100	–	O=C(O)c1ccc(SC2CCCc3cccnc32)cc1 (stereo not shown) [Example 16, 4-(5,6,7,8-tetrahydroquinoline-8-ylthio)-benzoic acid]
33	–	O=[N+]([O-])c1cc(SC2CCCc3cccnc32)ccc1O (stereo not shown) [Example 21, 8-(4-hydroxy-3-nitrophenylthio)-5,6,7,8-tetrahydroquinoline]
12.6	26.3	O=[N+]([O-])c1ccc(SC2CCCc3cccnc32)cc1 (stereo not shown) [Example 4, 8-(4-nitrophenylthio)-5,6,7,8-tetrahydroquinoline hydrochloride]
2.3	–	c1cnc2c(c1)CCCC2Sc1ccc2ccccc2c1 (stereo not shown) [Example 9, 8-(2-naphthylthio)-5,6,7,8-tetrahydroquinoline hydrochloride]
18.6	–	COC(=O)c1ccc(SC2CCCc3cccnc32)cc1 (stereo not shown) [Example 20, Methyl 4-(5,6,7,8-tetrahydroquinoline-8-ylthio)-benzoate hydrochloride]
31	–	N#Cc1ccc(SC2CCCc3cccnc32)cc1 (stereo not shown) [Example 2, 4-(5,6,7,8-tetrahydroquinoline-8-ylthio)-benzonitrile]
14.1	–	Oc1ccc(SC2CCCc3cccnc32)cc1 (stereo not shown) [Example 8, 8-(4-hydroxyphenylthio)-5,6,7,8-tetrahydroquinoline]
5.6	–	CCCCCC(O)c1cccc(SC2CCCc3cccnc32)c1 (stereo not shown) [Example 11, 8[3-(1-hydroxyhexyl)-phenylthio]-5,6,7,8-tetrahydroquinoline]
1.7	52.5	c1cnc2c(c1)CCCC2Sc1cccc2ccccc12 (stereo not shown) [Example 6, 8-(1-naphthylthio)-5,6,7,8-tetrahydroquinoline]
11.2	–	CCOc1ccc(SC2CCCc3cccnc32)cc1 (stereo not shown) [Example 18, 8-(4-ethoxyphenylthio)-5,6,7,8-tetrahydroquinoline hydrochloride]
25	> 100	Nc1ccc(SC2CCCc3cccnc32)cc1 (stereo not shown) [Example 7, 8-(4-aminophenylthio)-5,6,7,8-tetrahydroquinoline]
4.2	22.4	Clc1ccc(SC2CCCc3cccnc32)cc1 (stereo not shown) [Example 1, 8-(4-chlorophenylthio)-5,6,7,8-tetrahydroquinoline hydrochloride]
13.2	16.6	COc1ccc(SC2CCCc3cccnc32)cc1 (stereo not shown) [Example 14, 8-(4-methoxyphenylthio)-5,6,7,8-tetrahydroquinoline hydrochloride]
1.9	–	CCCCc1ccc(SC2CCCc3cccnc32)cc1 (stereo not shown) [Example 10, 8-(4-n-butylphenylthio)-5,6,7,8-tetrahydroquinoline hydrochloride]
4	–	CCc1ccc(SC2CCCc3cccnc32)cc1 (stereo not shown) [Example 15, 8-(4-ethylphenylthio)-5,6,7,8-tetrahydroquinoline hydrochloride]
3	23.4	Cc1ccc(SC2CCCc3cccnc32)cc1 (stereo not shown) [Example 5, 8-(4-methylphenylthio)-5,6,7,8-tetrahydroquinoline hydrochloride]
26	–	NS(=O)(=O)c1ccc(SC2CCCc3cccnc32)cc1 (stereo not shown) [Example 12, 4-(5,6,7,8-tetrahydroquinoline-8-ylthio)-benzenesulfonamide]

SMILES	IC50 (5-lipoxygenase) [µM]	IC50 (LTD4 receptor) [µM]
CC(=O)Oc1ccc(SC2CCCc3cccnc32)cc1 (stereo not shown) [Example 19, 8-(4-acetoxyphenylthio)-5,6,7,8-tetrahydroquinoline hydrochloride]	45	–
CCCCOc1ccc(SC2CCCc3cccnc32)cc1 (stereo not shown) [Example 17, 8-(4-n-Butoxyphenylthio)-5,6,7,8-tetrahydroquinoline hydrochloride]	3.7	–
